In publication PMC9783881, “Synthesis and Preclinical Evaluation of Small-Molecule Prostate-Specific Membrane Antigen-Targeted Abiraterone Conjugate” (Molecules, 2022):
Entries after “also recorded” stand apart in the source; their conditions may differ. Read-outs that look alike come from different tables or passages of the source.

Experiments:
Pharmacokinetics in rats = assay type: in vivo
Experimental: The pharmacokinetic parameters were studied for healthy, outbred, adult, male, albino rats (Wistar) about 3 months old weighing 190–210 g. The experiment included 3 rats for preparation. The formulation of conjugate PSMA-Abi was the same as for the acute toxicity evaluation. Administration dose was 1000 mg/kg.
Blood samples were taken from the tail vein of rats in a volume of 0.2 mL in polyethylene micro-tubes with a capillary up to 0.5 mL by trimming the tip of the tail. K2EDTA was used as an anticoagulant. During the study, a total of 48 blood samples from 3 animals (16 samples from each animal) were selected for PSMA-Abi.
Immediately after taking a blood sample, the tube was carefully inverted several times to mix the contents (anticoagulant). The plasma was then separated by centrifugation at 1500× g for 10 min at a temperature of +4 °C. Centrifugation was performed no later than 15 min after sampling each blood sample. The studied conjugate PSMA-Abi was determined in the blood plasma samples of rats and rabbits by high-performance liquid chromatography (Agilent 1200) with tandem mass spectrometric detection (QTrap 4500 tandem mass spectrometer) with preliminary isolation of the analyte from the biomaterial. Detailed method parameters are described in Table S6.

[1] = tested on: human adult dermal fibroblasts (HDFa); assay: Cytotoxicity on human adult dermal fibroblasts, MTT-test; assay type: cell-based
Experimental: Human adult dermal fibroblasts (HDFa). (ATCC) were propagated in DMEM medium (Paneco) supplemented with 10% fetal calf serum (Gibco) and 1% pemicillin/streptomycin in a 5% CO2 atmosphere at 37 °C. Cytotoxicity of PSMA-Abi and AbiAc in fibroblasts were studied using MTT-test. The cells in the exponential growth phase were trypsinized, counted, and seeded at a density of 5000 cells/well in 96-well plate. Cells were incubated with both tested agents at the designated concentrations (0.4–100 μM) for 72 h; then, each well was treated with 20 μL MTT solution in PBS (5 mg/mL) and cells were incubated at least for 3 h, and formazan was dissolved in DMSO. The absorbance was measured at […] and 620 nm using Thermofischer Scientific Multiscan FC. The values for each point were calculated from 6 wells.

22Rv1 cells = assay: Cell cycle analysis; assay type: cell-based, human
Experimental: Cell cycle was analyzed in 22Rv1 cells fixed in 70% ethanol with Muse® cell cycle kit. The fixation lasted overnight at −20 °C. Then, cells were collected by centrifugation at 4000 rpm for 10 min and washed with PBS. The cells were resuspended with Muse® Cell Cycle reagent and incubated for 30 min at room temperature in the dark; then, they were counted.

cytochrome P450 2C8 = target: T1, cytochrome P450 2C8 (Homo sapiens, UniProt P10632); assay: Cytochrome inhibition in human liver microsomes, 2C8; assay type: in vitro ADME; conditions: substrate Paclitaxel, read-out: IC50, 2C8 (PSMA-Abi)
T1 construct: isoenzyme activity in human liver microsomes using conventional sample substrates and HPLC-MS/MS detection; from tissue; host or cells: human liver microsomes
T1 sequence (P10632 1-490): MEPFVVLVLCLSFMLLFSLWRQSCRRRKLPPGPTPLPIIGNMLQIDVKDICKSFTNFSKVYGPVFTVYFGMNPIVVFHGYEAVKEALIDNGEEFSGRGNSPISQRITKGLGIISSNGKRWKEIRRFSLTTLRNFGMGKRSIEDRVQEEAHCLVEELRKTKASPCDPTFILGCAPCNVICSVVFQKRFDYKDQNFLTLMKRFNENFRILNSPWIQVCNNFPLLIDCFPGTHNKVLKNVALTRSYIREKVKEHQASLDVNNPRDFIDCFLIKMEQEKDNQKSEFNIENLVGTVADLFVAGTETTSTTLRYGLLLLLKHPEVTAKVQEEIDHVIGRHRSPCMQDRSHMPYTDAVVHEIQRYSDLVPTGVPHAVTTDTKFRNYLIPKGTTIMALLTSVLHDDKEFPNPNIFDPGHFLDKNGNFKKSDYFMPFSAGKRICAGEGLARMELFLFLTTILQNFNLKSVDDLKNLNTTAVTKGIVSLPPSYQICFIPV
Description: (§1) To assess the effect of drugs on liver cytochrome activity in drug development, test systems with recombinant enzymes and fluorescent substrates as well as microsomes with metabolic substrates and HPLC-MS/MS analysis were used. The present study aimed to investigate the effect of targeted delivery drugs specific to malignant prostate cells on cytochrome P450 (CYP450) isoenzyme activity in human liver microsomes using conventional sample substrates and HPLC-MS/MS detection. Detailed methodological parameters are described in the Supplementary Material.

cytochrome P450 2D6 = target: T2, cytochrome P450 2D6 (Homo sapiens, UniProt P10635); assay: Cytochrome inhibition in human liver microsomes, 2D6; assay type: in vitro ADME; conditions: substrate Dextromethorphan, read-out: IC50, 2D6 (PSMA-Abi)
T2 construct: isoenzyme activity in human liver microsomes using conventional sample substrates and HPLC-MS/MS detection; from tissue; host or cells: human liver microsomes
Description: as §1

cytochrome P450 3A4 = target: T3, cytochrome P450 3A4 (Homo sapiens, UniProt P08684); assay: Cytochrome inhibition in human liver microsomes, 3A4; assay type: in vitro ADME
T3 construct: isoenzyme activity in human liver microsomes using conventional sample substrates and HPLC-MS/MS detection; from tissue; host or cells: human liver microsomes
Description: as §1

Acute toxicity in mice = assay type: in vivo
Experimental: White, outbred male mice (ICR) about 2 months old weighing 19–21 g were used. Conjugate PSMA-Abi (2000 mg/kg) was formulated with 1% starch gel solution. The mixture was administrated intragastrically in an amount not exceeding 0.5 mL, and in portions if necessary. The control group was administered 1% starch gel solution. Animals were kept under controlled environmental conditions: air temperature 20–26 °C and relative humidity 30–70%. Lighting in the rooms was artificial (a cycle of 12 h of light, 12 h of darkness). Before the start of the study, animals were divided into groups of 10 animals per group. The distribution was made such that the average masses of groups of animals of one species differed by no more than 10%. Before the experiment concerning the determination of acute toxicity, the animals were deprived of food and water (mice for 2 h) and then weighed. The duration of observation of laboratory animals was 14 days. During this period, visible signs of intoxication were evaluated. Dose selection was carried out based on 22Rv1 xenograft experiments with the maximum effective dose for mice of 500 mg/kg.

[2] = single oral administration, mean
[3] = single peroral 1000 mg/kg, Mean ± SD
[4] = mice males, 2000 mg/kg single, M±SD

T3 sequence (P08684 whole entry): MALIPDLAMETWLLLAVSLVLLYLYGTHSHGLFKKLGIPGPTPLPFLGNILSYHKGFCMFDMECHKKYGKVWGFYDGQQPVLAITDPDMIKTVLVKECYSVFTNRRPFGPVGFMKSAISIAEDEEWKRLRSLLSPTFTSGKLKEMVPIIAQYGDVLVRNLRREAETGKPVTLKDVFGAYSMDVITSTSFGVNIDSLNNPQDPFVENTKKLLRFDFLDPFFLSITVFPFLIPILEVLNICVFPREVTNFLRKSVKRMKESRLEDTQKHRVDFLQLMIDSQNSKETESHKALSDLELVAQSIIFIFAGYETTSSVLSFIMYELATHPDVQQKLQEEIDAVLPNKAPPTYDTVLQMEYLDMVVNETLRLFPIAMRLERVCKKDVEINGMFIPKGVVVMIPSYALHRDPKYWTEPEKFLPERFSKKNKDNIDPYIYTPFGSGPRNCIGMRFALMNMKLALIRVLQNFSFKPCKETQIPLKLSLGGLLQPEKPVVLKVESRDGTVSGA
T2 sequence (P10635 whole entry): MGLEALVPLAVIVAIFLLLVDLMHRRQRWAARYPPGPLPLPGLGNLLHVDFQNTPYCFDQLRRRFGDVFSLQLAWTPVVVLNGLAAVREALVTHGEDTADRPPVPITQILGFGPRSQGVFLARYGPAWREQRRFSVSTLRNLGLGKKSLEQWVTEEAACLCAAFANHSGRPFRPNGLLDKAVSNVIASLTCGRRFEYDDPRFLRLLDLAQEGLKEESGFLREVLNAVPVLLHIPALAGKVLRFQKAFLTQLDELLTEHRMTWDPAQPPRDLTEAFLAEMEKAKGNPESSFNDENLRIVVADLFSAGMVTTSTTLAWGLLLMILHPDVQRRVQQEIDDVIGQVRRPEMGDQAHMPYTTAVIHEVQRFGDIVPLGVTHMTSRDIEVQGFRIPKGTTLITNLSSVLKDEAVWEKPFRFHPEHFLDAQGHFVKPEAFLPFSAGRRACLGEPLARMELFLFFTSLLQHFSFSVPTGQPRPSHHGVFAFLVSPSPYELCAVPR

C[C@]12CC[C@H](OC(=O)CCCc3cn(CCCNC(=O)[C@H](Cc4ccc(O)cc4)NC(=O)[C@H](Cc4ccccc4)NC(=O)CCC(=O)NCCCCCC(=O)N(CCCC[C@H](NC(=O)N[C@@H](CCC(=O)O)C(=O)O)C(=O)O)Cc4cccc(Cl)c4)nn3)CC1=CC[C@@H]1[C@@H]2CC[C@]2(C)C(c3cccnc3)=CC[C@@H]12 [PSMA-Abi]
maximum plasma concentrations, range over animals (Pharmacokinetics in rats; oral 1000 mg/kg): 190 to 537 ng/mL | time plasma concentrations were detected after administration (Pharmacokinetics in rats; oral 1000 mg/kg): at least 72 h | time to maximum plasma concentration, range over animals (Pharmacokinetics in rats; oral 1000 mg/kg): 1.5 to 8 h | AUC0–t (Pharmacokinetics in rats; [2]): 3791 ± 875 ng·h/mL | AUC0–∞ (Pharmacokinetics in rats; [2]): 4623 ± 1260 ng·h/mL | Cmax (Pharmacokinetics in rats; single peroral 1000 mg/kg, 1% starch suspension, Mean ± SD): 318 ± 190 ng/mL | AUC0–t (Pharmacokinetics in rats; [3]): 3791 ± 875 ng·h/mL | AUC0–∞ (Pharmacokinetics in rats; [3]): 4623 ± 1260 ng·h/mL | AUCt–∞/AUC0–∞ (Pharmacokinetics in rats; [3]): 21 ± 5% | Kel (Pharmacokinetics in rats; [3]): 0.023 ± 0.006 h⁻¹ | MRT0–t (Pharmacokinetics in rats; [3]): 27.2 ± 1.7 h | T1/2 (elimination half-life) (Pharmacokinetics in rats; [3]): 31.3 ± 8.7 h | Tmax (Pharmacokinetics in rats; single peroral 1000 mg/kg, mean): 3.8 h | CC50 ([1]; HDFa, 72 h, MTT): > 100 µM | toxicity for human fibroblasts ([1]; tested concentrations 0.4–100 µM): inactive | effect on cell cycle (22Rv1 cells; 22Rv1, against a control group): not statistically significant against a control group | level of G0/G1 cells (22Rv1 cells; 22Rv1, with increasing concentration): practically unchanged | IC50 (cytochrome P450 2C8): 4.4 ± 1.1 µM | IC50 (cytochrome P450 2D6): 17 ± 1 µM | IC50 (cytochrome P450 3A4; substrate Midazolam, read-out: IC50, 3A4-M (PSMA-Abi)): 1.1 ± 0.2 µM | IC50 (cytochrome P450 3A4; substrate Testosterone, read-out: IC50, 3A4-T (PSMA-Abi)): 5.7 ± 0.8 µM | weight dynamic, % of starting weight, 5 days (Acute toxicity in mice; [4]): 17.5±7.4% | weight dynamic, % of starting weight, 10 days (Acute toxicity in mice; [4]): 30.9±11.5% | weight dynamic, % of starting weight, 14 days (Acute toxicity in mice; [4]): 30.7±17.9% | growth rate (body weight), % of initial weight (Acute toxicity in mice; mice, 2000 mg/kg single dose, by the 14th day, control 50): 30% | animal death (Acute toxicity in mice; mice, 2000 mg/kg single dose, intragastric, 14 days observation, 2000 mg/kg): No animal death was observed; also recorded: without animal death | tolerable dose (Acute toxicity in mice; mice, single dose): 2000 mg/kg
